Experimental data published in patent US5491220A, “Surface loop structural analogues of fibroblast growth factors” (Yeda Research and Development Co., Ltd., priority 1994, dated 1996).
“Also recorded” adds a separate entry of the source.

Legend:
FGFR2(IIIb) = assay: Chemical cross-linking of 125I-FGF to soluble FGFR2(IIIb); type: binding, murine; conditions: with and without excess unlabelled FGF
Method: (§1) Binding of FGF proteins to different FGF receptors are determined in this example, by measuring the degree of competition for binding to different types of FGF-receptor proteins between a radioiodinated FGF protein and various unlabelled proteins, or by the direct binding of radioiodinated FGF's to various receptor proteins. Binding studies are confirmed by chemical cross-linking of the radioiodinated FGF to soluble receptors in the presence and absence of excess unlabelled FGF.
(§2) Soluble FGF receptor proteins are constructed by cloning of the extracellular region of murine FGF receptor 1 (FGFR-1; flg), FGF receptor 2 (FGFR-2; bek) or the KGF receptor (FGFR(IIIb); K-sam) into the alkaline phosphatase-tag expression vector, which encodes for a secreted form of placental alkaline phosphatase (AP). The FGF receptor alkaline phosphatase (FRAP) plasmids are cotransfected into NIH 3T3 cells by electroporation with a selectable neomycin resistance gene. Clonies are selected in G418 (600 μg/ml) and screened for secreted AP enzyme activity in the conditioned medium. Clones of each receptor which produced a high level of AP activity (2 to 4 A405 units/min/ml) are then used to produce conditioned medium for binding assays.
(§3) Chemical cross-linking experiments are carried out at room temperature in a volume of 20 μl in siliconized 0.5-ml microcentrifuge tubes. The reaction mixtures contain FGF receptor immobilized to anti-AP monoclonal antibodies coupled to protein A Sepharose®, 200 ng/ml heparin, 2 ng/ml^125 I-bFGF, 20 mM phosphate buffer (pH 7.4), and 140 mM NaCl. After a 90 minute incubation, […] of a solution of disuccinimidyl suberate (Pierce) dissolved in dimethyl sulfoxide is added to give a final concentration of 0.15 mM, and the mixture incubated for an additional 30 minutes. The reaction is quenched by addition of […] of 200 mM ethanolamine-HCl (pH 8.0) for 30 min. The reaction mixtures are diluted 1:1 with 2× SDS-polyacrylamide gel electrophoresis loading buffer and electrophoresed on an SDS-12% polyacrylamide gel. Cross-linked FGF to the FGF receptor are detected by autoradiography on Kodak XAR film.

[1] = test system: FGFR2(IIIb) (FGF-7 or KGF receptor); assay: Competition binding to soluble FGFR2(IIIb) (displacement of 125I-FGF-7); set-up: species or system murine; conditions: 200 ng/ml heparin
Method: as §1, §2
(§4) Components of the soluble receptor binding reaction mixture include FRAP-conditioned medium (0.24 OD units/min), 2 ng/ml^125 I-FGFs and 200 ng/ml heparin. The FGF:heparin:FRAP terniary complex is immunoprecipitated with 20 μl of a 1:1 slurry of anti-AP monoclonal antibodies coupled to protein A Sepharose®. All components are mixed at room temperature. The total volume is adjusted to 200 μl by addition of DMEM containing 0.1% bovine serum albumin. Binding is allowed to proceed for 1 to 2 hours at 24° C., after which time bound receptor complex or the ligand is recovered by centrifugation at 4° C. (10 s at 2,000×g). The pelleted material is washed twice with 500 μl of an ice cold buffer containing HEPES (20 mM), NaCl (150 mM), glycerol (10%) and Triton® X-100 (1%). ^125 I-FGF binding is quantitated by counting of the samples in a gamma counter (LKB). Alternatively, AP enzyme activity of the FRAP protein is determined by transferring the FRAP receptor bound to […] to a flat-bottom microtiter plate in a volume of 50 μl of PBS. The reaction is initiated by addition of substrate (50 μl of 2× solution of AP assay buffer containing 2M diethanoiamine, 1 mM MgCl2, 20 mM homoarginine and 12 mM p-nitrophenyl phosphate). The reaction is followed at room temperature at 405 nm in a kinetic microplate reader.

[2] = test system: soluble FGF receptor 1 (FGFR-1; flg); assay: Competition binding to soluble FGFR1 (displacement of 125I-FGF-2); set-up: species or system murine; conditions: 200 ng/ml heparin
Method: as §1, §2, §4

FGFR1 = assay: Chemical cross-linking of 125I-FGF to soluble FGFR1; type: binding, murine; conditions: with and without excess unlabelled FGF
Method: as §1, §2, §3

[3] = test system: FGF receptor on BHK cells; assay: Competition for 125I-FGF-2 binding to baby hamster kidney (BHK) cells; conditions: 50 pM 125I-FGF-2; compared with FGF-2
Method: FGF-2LI and FGF-2LA are tested for their capacity to compete for the binding of ^125 I-FGF-2 (Amersham Corp.) to baby hamster kidney (BHK) cells, which express high numbers of FGF receptor. The assay employed is described by Moscatelli (J. Cell. Physiol. 131: 123-130 (1987)). Briefly stated, BHK cells plated on 24-well plates are incubated with 50 pM ^125 I-FGF-2 with serial dilutions of unlabelled FGF-2, FGF-2LI or FGF-2LA loop mutants at room temperature for 1 hour or at 4° C. for 2 hours. The cells are then incubated at 4° C. for 30 minutes, washed twice with phosphate-buffered saline and treated with 20 mM HEPES (N-2-hydroxyethyl-piperazine-N'-2-ethanesulfonic acid), pH 7.5, containing 2M NaCl to remove ^125 I-FGF-2 bound to low affinity heparin sulfate binding sites. Receptor bound ^125 I-FGF-2 is recovered by treatment of the cells with 0.5% Triton X-100 in 0.1M sodium phosphate, pH 8, and counted in a γ-counter. Assays are conducted in duplicate.

[4] = Affinity for immobilized heparin (NaCl elution from heparin column); type: binding
Method: Cells from 1 liter cultures are harvested by centrifugation, resuspended in 30 ml of 50 mM Tris-HCl, pH 7.5 containing 0.1 mM EDTA and 0.6M NaCl, and disrupted by treatment with lysozyme (10 μg/ml) for 20 min at 4° C. followed by sonication (6×30 sec pulses). The lysates are clarified by centrifugation (10,000×g; 20 min) and the supernatant solutions incubated with 5 ml of hydrated heparin Sepharose (Pharmacia/LKB) at 4° C. for 1 hour with constant rotation. The resin is isolated by filtration on 0.8 μm filter apparatus (Nalgene), washed extensively with 10 mM Tris-HCl pH 7.4 containing 0.6M NaCl and bound protein eluted with Tris buffer containing 3M NaCl (25 ml). The 3M NaCl eluent is diluted 6-fold with Tris buffer and loaded onto a TSK heparin 5PW column (0.21×15 cm; The Nest Group, MA) and the column developed using a linear NaCl gradient (0.6 to 2M) in 90 min at a flow rate of […].
NaCl elution from heparin-Sepharose® is about 0.7M NaCl, compared with 1.4M NaCl for the wild-type protein. The molarity of NaCl required to elute the LK mutant is similar to that required to elute FGF-7.

neovascularization = assay: In vivo angiogenesis, rabbit ear chamber model
Method: In an in vivo model of angiogenesis, FGF-2LI is evaluated using the rabbit ear chamber system modified and improved by Howden, G. F., and Silver, I. A., (Int. Endodontic J. 13: 3-16 (1980)), observing the growth factor-induced neovascularization, or its inhibition, by modified growth factors or other reagents.
Rabbits are sedated using 50-70 mg/kg ketamine and 10 mg/kg xylozine administered intramuscularly. The ears are shaved with an electric hair clipper and cleaned with water, followed by Betadine®. To minimize the risk of infection, the rabbits are given 20,000 units/kg benzathine penicillin intramuscularly prior to insertion of the ear chambers. The chamber is inserted into an approximately 0.75 cm area which is not crossed by any major vessels. During the course of the experiments, observations or any minor handling of ear chambers of the animals is done by sedating the animal using the intramuscular administration of a combination of Butorphanol® and acepromazine at levels of 1 mg/kg each. FGF-2 or FGF-2LI bound to heparin-Sepharose® beads in a controlled-release alginate capsule is contained in one of the ear chambers and the other is used as a control containing only the heparin-Sepharose® alginate capsule vehicle. Thus, the effect of the growth factors and the controlled-release capsule alone can be observed simultaneously in the same animal. […] The animals are kept for 4 to 6 weeks and neovascularization is observed visually and recorded photographically at weekly intervals.
The criteria for evaluation of the degree of neovascularization using this procedure is set out below.

FGF-1: acidic fibroblast growth factor
Cross-linking to FGFR2(IIIb) (FGFR2(IIIb)): bind
Binding to soluble FGFR2(IIIb) (competition with 125I-FGF-7) [1]: bind with the same affinity
Binding to soluble FGFR1 (competition with 125I-FGF-2) [2]: bind equally well
Cross-linking to FGFR1 (FGFR1): bind
Capacity to compete with 125I-FGF-2 binding to FGF receptors on BHK cells [3]: affinity equal to that of FGF-2

FGF-2: basic fibroblast growth factor, wild-type factor used as comparator (NNYNTYRSRKYTSWYVALKRT) [reference compound]
Cross-linking to FGFR2(IIIb) (FGFR2(IIIb)): excluded from binding
Binding to soluble FGFR2(IIIb) (competition with 125I-FGF-7) [1]: do not bind; also recorded: does not compete
NaCl concentration at elution from TSK-heparin column ([4]; TSK-heparin column): about 1.5 M
NaCl elution from heparin-Sepharose ([4]; heparin-Sepharose): 1.4 M
Binding to soluble FGFR1 (competition with 125I-FGF-2) [2]: bind equally well
Cross-linking to FGFR1 (FGFR1): bind
Angiogenesis at 400 ng/chamber (neovascularization; 400 ng/chamber): completely inhibited
Concentration range over which stimulatory activity is observed (neovascularization; rabbit ear chamber): 10-100 ng/chamber
Potential to induce angiogenesis (neovascularization) (neovascularization; rabbit ear chamber, controlled-release alginate capsule): dose-dependent induction of new blood vessels
Vessel formation in the chamber (neovascularization; rabbit ear chamber, versus control chambers): stimulate large vessel formation

FGF-7: fibroblast growth factor-7, also known as keratinocyte growth factor or KGF (NHYNTYASAKWTHNGGEMFVALNQK)
Cross-linking to FGFR2(IIIb) (FGFR2(IIIb)): bind
Binding to soluble FGFR2(IIIb) (competition with 125I-FGF-7) [1]: bind with the same affinity
Binding to soluble FGFR1 (competition with 125I-FGF-2) [2]: no binding
Cross-linking to FGFR1 (FGFR1): not detected

hrIL-1β: human recombinant interleukin-1β (Biogen) [reference compound]
Capacity to compete with 125I-FGF-2 binding to FGF receptors on BHK cells [3]: no binding
